Source: patent USRE50050E1, “Pyrimidinedione compounds” (MyoKardia, Inc., priority 2013, dated 2024)

These compounds were tested against T1, bovine cardiac myosin (Bos taurus, UniProt Q9BE39) (assay: Myosin inhibition assay (PK/LDH-coupled ATPase, bovine cardiac myofibrils)). Details: not given.
T1 construct: The source of cardiac myosin was from bovine heart in the form of skinned myofibrils; from tissue; host or cells: bovine heart, skinned myofibrils
Format: biochemical

T1 sequence (Q9BE39 whole entry): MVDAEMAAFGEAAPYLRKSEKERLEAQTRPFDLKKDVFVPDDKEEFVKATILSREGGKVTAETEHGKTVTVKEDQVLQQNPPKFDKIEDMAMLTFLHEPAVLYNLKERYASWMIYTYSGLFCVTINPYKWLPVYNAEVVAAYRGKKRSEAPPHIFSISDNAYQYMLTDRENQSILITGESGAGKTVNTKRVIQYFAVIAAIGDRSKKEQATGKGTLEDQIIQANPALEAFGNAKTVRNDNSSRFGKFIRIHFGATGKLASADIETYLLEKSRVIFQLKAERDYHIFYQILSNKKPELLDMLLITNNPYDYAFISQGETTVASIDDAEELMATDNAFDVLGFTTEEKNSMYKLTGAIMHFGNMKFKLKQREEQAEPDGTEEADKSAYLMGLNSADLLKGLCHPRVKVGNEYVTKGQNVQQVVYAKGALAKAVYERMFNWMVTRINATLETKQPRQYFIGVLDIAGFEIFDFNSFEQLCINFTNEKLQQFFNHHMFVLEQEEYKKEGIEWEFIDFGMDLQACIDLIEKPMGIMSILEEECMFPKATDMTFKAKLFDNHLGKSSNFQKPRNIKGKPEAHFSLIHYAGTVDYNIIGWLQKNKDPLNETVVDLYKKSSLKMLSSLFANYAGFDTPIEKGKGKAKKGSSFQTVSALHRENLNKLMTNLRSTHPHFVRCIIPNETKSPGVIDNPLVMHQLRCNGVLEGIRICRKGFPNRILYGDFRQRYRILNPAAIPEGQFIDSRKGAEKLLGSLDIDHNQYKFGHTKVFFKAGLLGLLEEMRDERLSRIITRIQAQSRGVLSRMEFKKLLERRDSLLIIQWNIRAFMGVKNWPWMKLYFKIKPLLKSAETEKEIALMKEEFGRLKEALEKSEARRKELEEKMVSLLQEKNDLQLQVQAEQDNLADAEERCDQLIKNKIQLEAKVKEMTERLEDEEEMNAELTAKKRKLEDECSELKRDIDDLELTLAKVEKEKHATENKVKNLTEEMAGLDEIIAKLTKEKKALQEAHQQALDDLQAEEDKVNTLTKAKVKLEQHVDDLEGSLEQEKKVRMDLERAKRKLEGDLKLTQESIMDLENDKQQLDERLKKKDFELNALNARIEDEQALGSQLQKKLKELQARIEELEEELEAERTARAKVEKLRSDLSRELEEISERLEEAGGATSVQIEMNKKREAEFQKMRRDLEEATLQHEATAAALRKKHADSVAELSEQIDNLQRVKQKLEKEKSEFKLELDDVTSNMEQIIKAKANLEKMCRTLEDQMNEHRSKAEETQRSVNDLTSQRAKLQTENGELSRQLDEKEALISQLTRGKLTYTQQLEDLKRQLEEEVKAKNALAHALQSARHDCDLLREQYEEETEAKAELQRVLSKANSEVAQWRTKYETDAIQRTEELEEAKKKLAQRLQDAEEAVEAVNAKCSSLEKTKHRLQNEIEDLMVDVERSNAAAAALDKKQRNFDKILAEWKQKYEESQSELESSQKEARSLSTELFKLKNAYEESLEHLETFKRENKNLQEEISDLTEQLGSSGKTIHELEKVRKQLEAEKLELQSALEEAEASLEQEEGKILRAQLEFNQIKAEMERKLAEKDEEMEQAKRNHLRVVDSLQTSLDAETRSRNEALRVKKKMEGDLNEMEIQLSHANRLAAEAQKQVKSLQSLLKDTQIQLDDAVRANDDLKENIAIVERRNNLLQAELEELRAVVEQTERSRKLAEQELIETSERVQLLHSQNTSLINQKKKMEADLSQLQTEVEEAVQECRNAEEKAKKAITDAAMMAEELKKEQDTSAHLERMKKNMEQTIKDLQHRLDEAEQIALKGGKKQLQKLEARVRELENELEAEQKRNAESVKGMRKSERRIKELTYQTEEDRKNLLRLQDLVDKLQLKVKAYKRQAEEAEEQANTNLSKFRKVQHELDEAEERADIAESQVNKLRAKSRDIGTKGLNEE
T1 sequence (P85100 whole entry partner): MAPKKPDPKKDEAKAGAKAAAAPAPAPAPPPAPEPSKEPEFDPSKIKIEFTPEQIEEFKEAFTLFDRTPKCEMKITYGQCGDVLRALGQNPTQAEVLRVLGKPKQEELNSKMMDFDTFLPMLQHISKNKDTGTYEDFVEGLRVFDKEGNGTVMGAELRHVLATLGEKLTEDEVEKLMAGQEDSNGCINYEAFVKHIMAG
T1 sequence (Q3SZE5 whole entry partner): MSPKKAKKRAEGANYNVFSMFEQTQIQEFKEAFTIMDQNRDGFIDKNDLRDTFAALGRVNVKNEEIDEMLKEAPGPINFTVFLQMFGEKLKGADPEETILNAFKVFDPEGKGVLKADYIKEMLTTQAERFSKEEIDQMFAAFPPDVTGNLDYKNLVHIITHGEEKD

Row | SMILES | IC50
1 | CC(C)n1c(=O)cc(N[C@@H](C)Cc2ccc(F)cc2)[nH]c1=O [Compound 51, (S)-6-((1-(4-fluorophenyl)propan-2-yl)amino)-3-isopropylpyrimidine-2,4(1H,3H)-dione] | 1000 to 15000 nM

Same assay, conditions: bovine cardiac myofibrils, calcium giving 50% activation (pCa50); read-out: Biochemical Activity (pCa50)

Row | IC50 | SMILES
2 | < 1000 nM | CC(C)n1c(=O)cc(N[C@@H](C)c2cccc(Br)c2)[nH]c1=O [Compound 35]
3 | 1000 to 15000 nM | CC[C@H](Nc1cc(=O)n(CC)c(=O)[nH]1)c1ccccc1 [Compound 36]
4 | < 1000 nM | C[C@H](Nc1cc(=O)n(-c2ccccn2)c(=O)[nH]1)c1ccccc1 [Compound 38]

Same assay, conditions: bovine cardiac myofibrils, calcium giving 75% activation (pCa75); read-out: Biochemical Activity (pCa75)

Row | SMILES | IC50
5 | CC(C)n1c(=O)[nH]c(N[C@@H](C)c2ccccc2)c(Br)c1=O [Compound 3, (S)-5-Bromo-3-isopropyl-6-((1-phenylethyl)amino)pyrimidine-2,4(1H,3H)-dione] | < 1000 nM
6 | CC(C)n1c(=O)[nH]c(N[C@@H](C)c2cccc(Cl)c2)c(F)c1=O [Compound 4, (S)-6-((1-(3-Chlorophenyl)ethyl)amino)-5-fluoro-3-isopropylpyrimidine-2,4(1H,3H)-dione] | < 1000 nM
7 | CC(C)n1c(=O)cc(N[C@@H](C)c2cc(F)cc(F)c2)[nH]c1=O [Compound 5, (S)-6-((1-(3,5-Difluorophenyl)ethyl)amino)-3-isopropylpyrimidine-2,4(1H,3H)-dione] | < 1000 nM
8 | CC(C)n1c(=O)cc(N[C@H](c2ccccc2)C2CC2)[nH]c1=O [Compound 6, (S)-6-((Cyclopropyl(phenyl)methyl)amino)-3-isopropylpyrimidine-2,4(1H,3H)-dione] | < 1000 nM
9 | COc1cccc([C@@H](Nc2cc(=O)n(C(C)C)c(=O)[nH]2)C2CC2)c1 [Compound 7, (S)-6-((cyclopropyl(3-methoxyphenyl)methyl)amino)-3-isopropylpyrimidine-2,4(1H,3H)-dione] | < 1000 nM
10 | CC(C)n1c(=O)cc(N[C@H](c2ccccc2)C2CCC2)[nH]c1=O [Compound 8, (S)-6-((Cyclobutyl(phenyl)methyl)amino)-3-isopropylpyrimidine-2,4(1H,3H)-dione] | < 1000 nM
11 | C[C@H](Nc1cc(=O)n(C2CCOCC2)c(=O)[nH]1)c1ccccc1 [Compound 9, (S)-6-((1-phenylethyl)amino)-3-(tetrahydro-2H-pyran-4-yl)pyrimidine-2,4(1H,3H)-dione] | < 1000 nM
12 | COc1cccc([C@H](C)Nc2cc(=O)n(C3CCOCC3)c(=O)[nH]2)c1 [Compound 10, (S)-6-((1-(3-methoxyphenyl)ethyl)amino)-3-(tetrahydro-2H-pyran-4-yl)pyrimidine-2,4(1H,3H)-dione] | < 1000 nM
13 | C[C@H](Nc1cc(=O)n(C2CCOC2)c(=O)[nH]1)c1ccccc1 (stereo partly drawn) [Compound 11, 6-(((S)-1-phenylethyl)amino)-3-(tetrahydrofuran-3-yl)pyrimidine-2,4(1H,3H)-dione] | 1000 to 15000 nM
14 | COC(=O)N1CCC(n2c(=O)cc(N[C@@H](C)c3ccccc3)[nH]c2=O)CC1 [Compound 13, (S)-methyl 4-(2,6-dioxo-4-(1-phenylethylamino)-2,3-dihydropyrimidin-1(6H)-yl)piperidine-1-carboxylate] | < 1000 nM
15 | CC[C@@H](C)n1c(=O)cc(N[C@@H](C)c2cccc(OC)c2)[nH]c1=O [Compound 14, 3-(R)-sec-butyl-6-((S)-1-(3-methoxyphenyl)ethylamino)pyrimidine-2,4(1H,3H)-dione] | < 1000 nM
16 | C[C@H](Nc1cc(=O)n(-c2cccnc2)c(=O)[nH]1)c1ccccc1 [Compound 15, (S)-6-(1-phenylethylamino)-3-(pyridin-3-yl)pyrimidine-2,4(1H,3H)-dione] | < 1000 nM
17 | C[C@H](Nc1cc(=O)n(-c2ccon2)c(=O)[nH]1)c1ccccc1 [Compound 16, (S)-3-(Isoxazol-3-yl)-6-(1-phenylethylamino)pyrimidine-2,4(1H,3H)-dione] | 1000 to 15000 nM
18 | CC(C)n1c(=O)cc(N[C@@H](C)c2cccc(-n3cccn3)c2)[nH]c1=O [Compound 17, (S)-6-((1-(3-(1H-pyrazol-1-yl)phenyl)ethyl)amino)-3-isopropylpyrimidine-2,4(1H,3H)-dione] | < 1000 nM
19 | COc1cccc([C@H](C)Nc2cc(=O)n(C(C)C)c(=O)[nH]2)c1 [Compound 21] | < 1000 nM
20 | COc1ccccc1[C@H](C)Nc1cc(=O)n(C(C)C)c(=O)[nH]1 [Compound 22] | 1000 to 15000 nM
21 | CC[C@H](Nc1cc(=O)n(C(C)C)c(=O)[nH]1)c1ccccc1 [Compound 24] | < 1000 nM

Next, values leading:

Row | IC50 | SMILES
22 | > 15000 nM | Cc1c(N[C@@H](C)c2ccccc2)[nH]c(=O)n(C(C)C)c1=O [Compound 25]
23 | < 1000 nM | CC(C)n1c(=O)cc(N[C@@H](C)c2ccccc2F)[nH]c1=O [Compound 26]
24 | < 1000 nM | CC(C)n1c(=O)cc(N[C@@H](C)c2cccc(Cl)c2)[nH]c1=O [Compound 28]
25 | < 1000 nM | COC[C@H](Nc1cc(=O)n(C(C)C)c(=O)[nH]1)c1ccccc1 [Compound 29]
26 | < 1000 nM | CC(C)n1c(=O)cc(N[C@@H](C)c2ccc(F)cc2)[nH]c1=O [Compound 30]
27 | < 1000 nM | CC[C@H](Nc1[nH]c(=O)n(C(C)C)c(=O)c1F)c1ccccc1 [Compound 31]
28 | < 1000 nM | CC(C)n1c(=O)[nH]c(N[C@@H](C)c2cccc(F)c2)c(F)c1=O [Compound 32]
29 | < 1000 nM | COc1cccc([C@H](C)Nc2[nH]c(=O)n(C(C)C)c(=O)c2F)c1 [Compound 33]
30 | < 1000 nM | CC(C)n1c(=O)cc(N[C@@H](C)c2cc(F)ccc2F)[nH]c1=O [Compound 34]
31 | < 1000 nM | CC(C)n1c(=O)cc(N[C@@H](C)c2cccc(Br)c2)[nH]c1=O [Compound 35]
32 | 1000 to 15000 nM | C[C@H](Nc1cc(=O)n(C2CC2)c(=O)[nH]1)c1ccccc1 [Compound 37]
33 | < 1000 nM | C[C@H](Nc1cc(=O)n(-c2ccccn2)c(=O)[nH]1)c1ccccc1 [Compound 38]
34 | < 1000 nM | C[C@H](Nc1cc(=O)n(-c2ccn(C)n2)c(=O)[nH]1)c1ccccc1 [Compound 39]
35 | < 1000 nM | C[C@H](Nc1cc(=O)n(-c2ccno2)c(=O)[nH]1)c1ccccc1 [Compound 40]
36 | < 1000 nM | CC(C)n1c(=O)cc(N[C@@H](C)c2cccc(-n3cncn3)c2)[nH]c1=O [Compound 41]
37 | < 1000 nM | Cc1nccn1-c1cccc([C@H](C)Nc2cc(=O)n(C(C)C)c(=O)[nH]2)c1 [Compound 42]
38 | < 1000 nM | CC(C)n1c(=O)cc(N[C@@H](C)c2cccc(N3CCOC3=O)c2)[nH]c1=O [Compound 43]
39 | < 1000 nM | C[C@H](Nc1cc(=O)n(C2CCCCC2)c(=O)[nH]1)c1ccccc1 [Compound 44]
40 | 1000 to 15000 nM | CCn1c(=O)cc(N[C@@H](C)c2ccccc2)[nH]c1=O [Compound 46]
41 | 1000 to 15000 nM | C[C@H](Nc1cc(=O)n(C)c(=O)[nH]1)c1ccccc1 [Compound 47]
42 | < 1000 nM | Cc1cccc([C@H](C)Nc2cc(=O)n(C(C)C)c(=O)[nH]2)c1 [Compound 50, (S)-3-isopropyl-6-((1-(m-tolyl)ethyl)amino)pyrimidine-2,4(1H,3H)-dione]
43 | < 1000 nM | CC(C)n1c(=O)cc(N[C@H](c2ccccc2)C(F)(F)F)[nH]c1=O [Compound 52, (R)-3-isopropyl-6-((2,2,2-trifluoro-1-phenylethyl)amino)pyrimidine-2,4(1H,3H)-dione]
44 | 1000 to 15000 nM | C[C@H](Nc1cc(=O)n([C@H](C)COCc2ccccc2)c(=O)[nH]1)c1ccccc1 [Compound 53, 3-((R)-1-(benzyloxy)propan-2-yl)-6-(((S)-1-phenylethyl)amino)pyrimidine-2,4(1H,3H)-dione]

Same assay, conditions: pCa75; assay conducted using 0.5 μM myosin, IC50 values below 1.0 μM are approximate; read-out: IC50 (pCa75)

Row | IC50 | SMILES
45 | 19600 nM | COc1cccc([C@@H](C)Nc2cc(=O)n(C(C)C)c(=O)[nH]2)c1 [Compound 20R]
46 | 390 nM | COc1cccc([C@H](C)Nc2cc(=O)n(C(C)C)c(=O)[nH]2)c1 [Compound 21]
